Data from ChEMBL document CHEMBL4382200, “Discovery of Novel 7-Aryl 7-Deazapurine 3'-Deoxy-ribofuranosyl Nucleosides with Potent Activity against Trypanosoma cruzi” (J Med Chem, 2018).
Active and inactive are the calls of the source. The rule behind the calls is not given here.

Experiments:
[1] = biological target: T1, UDP-glucuronosyltransferases (UGTs) (family) (Homo sapiens, UniProt O60656+O75310+O75795+P06133+P0DTE4+P0DTE5+P16662+P19224+P22309+P22310+P35503+P35504+P36537+P54855+Q6UWM9+Q9BY64+Q9HAW7+Q9HAW8+Q9HAW9); experiment: Drug metabolism in human liver microsome S9 fraction assessed as UGT-mediated metabolism by measuring compound remaining at 5 uM pretreated with UDPGA and measured after 30 mins by UPLC-MS/MS analysis; type: ADME, microsomes; conditions: liver microsome S9 fraction, read-out: Stability
CYP450 [2] = experiment: Drug metabolism in dog liver microsome S9 fraction assessed as CYP450-mediated metabolism by measuring compound remaining at 5 uM pretreated with NADPH and measured after 30 mins by UPLC-MS/MS analysis; type: ADME, microsomes, Canis lupus familiaris; conditions: liver microsome S9 fraction, read-out: Stability
UGT [3] = experiment: Drug metabolism in dog liver microsome S9 fraction assessed as UGT-mediated metabolism by measuring compound remaining at 5 uM pretreated with UDPGA and measured after 60 mins by UPLC-MS/MS analysis; type: ADME, microsomes, Canis lupus familiaris; conditions: liver microsome S9 fraction, read-out: Stability
UGT [4] = experiment: Drug metabolism in rat liver microsome S9 fraction assessed as UGT-mediated metabolism by measuring compound remaining at 5 uM pretreated with UDPGA and measured after 60 mins by UPLC-MS/MS analysis; type: ADME, microsomes; conditions: liver microsome S9 fraction, read-out: Stability
[5] = biological target: T1, UDP-glucuronosyltransferases (UGTs) (family); experiment: Drug metabolism in human liver microsome S9 fraction assessed as UGT-mediated metabolism by measuring compound remaining at 5 uM pretreated with UDPGA and measured after 60 mins by UPLC-MS/MS analysis; type: ADME, microsomes; conditions: liver microsome S9 fraction, read-out: Stability
Cytochrome P450 (family) [6] = biological target: T2, Cytochrome P450 (family) (Homo sapiens, UniProt P04798+P05177+P05181+P08684+P10632+P10635+P11509+P11712+P13584+P20813+P20815+P20853+P24462+P24903+P33260+P33261+P51589+P78329+P98187+Q02928+Q08477+Q16678+Q16696+Q5TCH4+Q6VVX0+Q7Z449+Q8TAV3+Q96SQ9+Q9HB55); experiment: Drug metabolism in human liver microsome S9 fraction assessed as CYP450-mediated metabolism by measuring compound remaining at 5 uM pretreated with NADPH and measured after 30 mins by UPLC-MS/MS analysis; type: ADME, microsomes; conditions: liver microsome S9 fraction, read-out: Stability
Trypanosoma cruzi [7] = experiment: Trypanocidal activity against Trypanosoma cruzi Y strain bloodstream trypomastigotes isolated from infected Swiss mouse […] assessed as parasite death after 24 hrs by neubauer chamber based light microscopy; type: functional, organism-based
Cytochrome P450 (family) [8] = biological target: T2, Cytochrome P450 (family); experiment: Drug metabolism in human liver microsome S9 fraction assessed as CYP450-mediated metabolism by measuring compound remaining at 5 uM pretreated with NADPH and measured after 15 mins by UPLC-MS/MS analysis; type: ADME, microsomes; conditions: liver microsome S9 fraction, read-out: Stability
CYP450 [9] = experiment: Drug metabolism in mouse liver microsome S9 fraction assessed as CYP450-mediated metabolism by measuring compound remaining at 5 uM pretreated with NADPH and measured after 60 mins by UPLC-MS/MS analysis; type: ADME, microsomes; conditions: liver microsome S9 fraction, read-out: Stability
Cytochrome P450 (family) [10] = biological target: T2, Cytochrome P450 (family); experiment: Drug metabolism in human liver microsome S9 fraction assessed as CYP450-mediated metabolism by measuring compound remaining at 5 uM pretreated with NADPH and measured after 60 mins by UPLC-MS/MS analysis; type: ADME, microsomes; conditions: liver microsome S9 fraction, read-out: Stability
Trypanosoma cruzi [11] = experiment: Antiparasitic activity against Trypanosoma cruzi Y strain bloodstream trypomastigotes infected in Swiss Webster mouse at 25 mg/kg, po bid via gavage administered for 5 consecutive days starting from day 5 post infection followed by cyclophosphamide-induced immunosuppression on day 40 post infection for 4 consecutive days; type: functional, organism-based
CYP450 [12] = experiment: Drug metabolism in rat liver microsome S9 fraction assessed as CYP450-mediated metabolism by measuring compound remaining at 5 uM pretreated with NADPH and measured after 30 mins by UPLC-MS/MS analysis; type: ADME, microsomes; conditions: liver microsome S9 fraction, read-out: Stability
UGT [13] = experiment: Drug metabolism in rat liver microsome S9 fraction assessed as UGT-mediated metabolism by measuring compound remaining at 5 uM pretreated with UDPGA and measured after 30 mins by UPLC-MS/MS analysis; type: ADME, microsomes; conditions: liver microsome S9 fraction, read-out: Stability
[14] = Therapeutic index, ratio EC50 for human MRC5 SV2 cells to EC50 for Trypanosoma cruzi Tulahuen CL2 intracellular amastigotes; type: toxicity, cell-based; conditions: read-out: Ratio EC50
Trypanosoma cruzi [15] = experiment: Antiparasitic activity against Trypanosoma cruzi Tulahuen CL2 intracellular amastigotes expressing beta-galactosidase infected in human MRC5 SV2 cells after 7 days by chlorophenol red beta-D-galactopyranoside-based spectrophotometric analysis; type: functional, organism-based; conditions: Tulahuen CL2, MRC-5 SV2, 168 h, read-out: EC50
UGT [16] = experiment: Drug metabolism in rat liver microsome S9 fraction assessed as UGT-mediated metabolism by measuring compound remaining at 5 uM pretreated with UDPGA and measured after 15 mins by UPLC-MS/MS analysis; type: ADME, microsomes; conditions: liver microsome S9 fraction, read-out: Stability
Trypanosoma cruzi [17] = experiment: Antiparasitic activity against Trypanosoma cruzi Y strain bloodstream trypomastigotes infected in Swiss Webster mouse assessed as protection against parasite-induced mortality by measuring survivial at 25 mg/kg, po bid via gavage administered for 5 consecutive days starting from day 5 post infection measured at day 40 post infection relative to control; type: functional
[18] = Cytotoxicity against Swiss mouse embryonic cardiomyocytes assessed as reduction in cell viability after 24 hrs by prestoblue-staining based colorimetry; conditions: Cardiac muscle cell
CYP450 [19] = experiment: Drug metabolism in mouse liver microsome S9 fraction assessed as CYP450-mediated metabolism by measuring compound remaining at 5 uM pretreated with NADPH and measured after 30 mins by UPLC-MS/MS analysis; type: ADME, microsomes; conditions: liver microsome S9 fraction, read-out: Stability
[20] = biological target: T1, UDP-glucuronosyltransferases (UGTs) (family); experiment: Drug metabolism in human liver microsome S9 fraction assessed as UGT-mediated metabolism by measuring compound remaining at 5 uM pretreated with UDPGA and measured after 15 mins by UPLC-MS/MS analysis; type: ADME, microsomes; conditions: liver microsome S9 fraction, read-out: Stability
[21] = Drug metabolism in mouse liver microsome S9 fraction assessed as UGT-mediated metabolism by measuring compound remaining at 5 uM pretreated with UDPGA and measured after 15 mins by UPLC-MS/MS analysis; type: ADME, microsomes; conditions: microsomes, 0.25 h, 5 µM
UGT [22] = experiment: Drug metabolism in mouse liver microsome S9 fraction assessed as UGT-mediated metabolism by measuring compound remaining at 5 uM pretreated with UDPGA and measured after 60 mins by UPLC-MS/MS analysis; type: ADME, microsomes; conditions: liver microsome S9 fraction, read-out: Stability
[23] = Toxicity in Swiss Webster mouse infected with Trypanosoma cruzi Y strain bloodstream trypomastigotes assessed as weight loss at 25 mg/kg, po bid via gavage administered for 5 consecutive days measured at day 40 post infection; type: organism-based; conditions: in vivo
[24] = Drug metabolism in rat liver microsome S9 fraction assessed as CYP450-mediated metabolism by measuring compound remaining at 5 uM pretreated with NADPH and measured after 15 mins by UPLC-MS/MS analysis; type: ADME, microsomes; conditions: microsomes, 0.25 h, 5 µM
[25] = Cytotoxicity against human MRC5 SV2 cells assessed as reduction in cell viability after 3 days resazurin-based fluorimetric assay; conditions: MRC-5 SV2, 72 h
Trypanosoma cruzi [26] = experiment: Trypanocidal activity against Trypanosoma cruzi Y strain intracellular amastigotes infected in mouse cardiac cells assessed as parasite death after 168 hrs by Giemsa-staining based assay; type: functional, organism-based
CYP450 [27] = experiment: Drug metabolism in dog liver microsome S9 fraction assessed as CYP450-mediated metabolism by measuring compound remaining at 5 uM pretreated with NADPH and measured after 15 mins by UPLC-MS/MS analysis; type: ADME, microsomes, Canis lupus familiaris; conditions: liver microsome S9 fraction, read-out: Stability
CYP450 [28] = experiment: Drug metabolism in mouse liver microsome S9 fraction assessed as CYP450-mediated metabolism by measuring compound remaining at 5 uM pretreated with NADPH and measured after 15 mins by UPLC-MS/MS analysis; type: ADME, microsomes; conditions: liver microsome S9 fraction, read-out: Stability
UGT [29] = experiment: Drug metabolism in dog liver microsome S9 fraction assessed as UGT-mediated metabolism by measuring compound remaining at 5 uM pretreated with UDPGA and measured after 15 mins by UPLC-MS/MS analysis; type: ADME, microsomes, Canis lupus familiaris; conditions: liver microsome S9 fraction, read-out: Stability
CYP450 [30] = experiment: Drug metabolism in dog liver microsome S9 fraction assessed as CYP450-mediated metabolism by measuring compound remaining at 5 uM pretreated with NADPH and measured after 60 mins by UPLC-MS/MS analysis; type: ADME, microsomes, Canis lupus familiaris; conditions: liver microsome S9 fraction, read-out: Stability
UGT [31] = experiment: Drug metabolism in mouse liver microsome S9 fraction assessed as UGT-mediated metabolism by measuring compound remaining at 5 uM pretreated with UDPGA and measured after 30 mins by UPLC-MS/MS analysis; type: ADME, microsomes; conditions: liver microsome S9 fraction, read-out: Stability
UGT [32] = experiment: Drug metabolism in dog liver microsome S9 fraction assessed as UGT-mediated metabolism by measuring compound remaining at 5 uM pretreated with UDPGA and measured after 30 mins by UPLC-MS/MS analysis; type: ADME, microsomes, Canis lupus familiaris; conditions: liver microsome S9 fraction, read-out: Stability
Trypanosoma cruzi [33] = experiment: Antiparasitic activity against Trypanosoma cruzi Y strain bloodstream trypomastigotes infected in Swiss Webster mouse assessed as decrease in parasitemia at 25 mg/kg, po bid via gavage administered for 5 consecutive days measured at day 8 post infection by direct microscopic counting relative to control; type: functional; parameters: scale not given: the % may be the effect or the level left
[34] = Cytotoxicity against Swiss mouse embryonic cardiomyocytes assessed as reduction in cell contractibillity at 2 uM after 24 hrs by light microscopy; conditions: cardiac muscle cell
CYP450 [35] = experiment: Drug metabolism in rat liver microsome S9 fraction assessed as CYP450-mediated metabolism by measuring compound remaining at 5 uM pretreated with NADPH and measured after 60 mins by UPLC-MS/MS analysis; type: ADME, microsomes; conditions: liver microsome S9 fraction, read-out: Stability
Trypanosoma cruzi [36] = experiment: Antiparasitic activity against Trypanosoma cruzi Tulahuen intracellular amastigotes by beta-galactosidase reporter gene assay; type: functional, organism-based

Nc1ncnc2c1c(-c1ccc(Cl)cc1)cn2[C@@H]1O[C@H](CO)[C@@H](O)[C@H]1O
remaining at 0.5 h, 5 µM [1]: 96%
remaining at 0.5 h, 5 µM (CYP450 [2]): 96%
remaining at 1 h, 5 µM (UGT [3]): 55%
remaining at 1 h, 5 µM (UGT [4]): 93%
remaining at 1 h, 5 µM [5]: 91%
remaining at 0.5 h, 5 µM (Cytochrome P450 (family) [6]): 93%
EC50 (Trypanosoma cruzi [7]): > 20 µM
remaining at 0.25 h, 5 µM (Cytochrome P450 (family) [8]): 113%
remaining at 1 h, 5 µM (CYP450 [9]): 102%
remaining at 1 h, 5 µM (Cytochrome P450 (family) [10]): 86%
Activity (Trypanosoma cruzi [11]): inactive
remaining at 0.5 h, 5 µM (CYP450 [12]): 104%
remaining at 0.5 h, 5 µM (UGT [13]): 93%
selectivity ratio [14]: 57
EC50 (Trypanosoma cruzi [15]): 470 nM
remaining at 0.25 h, 5 µM (UGT [16]): 100%
Activity (Trypanosoma cruzi [17]): 100%
EC50 [18]: 274 µM
remaining at 0.5 h, 5 µM (CYP450 [19]): 95%
remaining at 0.25 h, 5 µM [20]: 99%
Stability [21]: 124%
remaining at 1 h, 5 µM (UGT [22]): 106%
Activity [23]: Non-Toxic
Stability [24]: 122%
EC50 [25]: 27 µM
EC50 (Trypanosoma cruzi [26]): 29 nM
remaining at 0.25 h, 5 µM (CYP450 [27]): 93%
remaining at 0.25 h, 5 µM (CYP450 [28]): 110%
remaining at 0.25 h, 5 µM (UGT [29]): 84%
remaining at 1 h, 5 µM (CYP450 [30]): 98%
remaining at 0.5 h, 5 µM (UGT [31]): 110%
remaining at 0.5 h, 5 µM (UGT [32]): 70%
Activity (Trypanosoma cruzi [33]): >99.8%
Activity [34]: Toxic
remaining at 1 h, 5 µM (CYP450 [35]): 106%

CN(C)c1ncnc2c1ncn2[C@@H]1O[C@H](CO)[C@@H](N)[C@H]1O [PUROMYCIN AMINONUCLEOSIDE]
EC50 (Trypanosoma cruzi [36]): 1000 nM
